IC50 data for 3 molecules are collected here from patent US8759379B2, “Inhibitors of cytochrome P450” (Gilead Sciences, Inc., priority 2008, dated 2014).

Molecules are shown by their SMILES.

Broadly, the IC50 is the concentration at which inhibition is half-maximal. A lower IC50 goes with higher potency.

T1 sequence (P08684 whole entry): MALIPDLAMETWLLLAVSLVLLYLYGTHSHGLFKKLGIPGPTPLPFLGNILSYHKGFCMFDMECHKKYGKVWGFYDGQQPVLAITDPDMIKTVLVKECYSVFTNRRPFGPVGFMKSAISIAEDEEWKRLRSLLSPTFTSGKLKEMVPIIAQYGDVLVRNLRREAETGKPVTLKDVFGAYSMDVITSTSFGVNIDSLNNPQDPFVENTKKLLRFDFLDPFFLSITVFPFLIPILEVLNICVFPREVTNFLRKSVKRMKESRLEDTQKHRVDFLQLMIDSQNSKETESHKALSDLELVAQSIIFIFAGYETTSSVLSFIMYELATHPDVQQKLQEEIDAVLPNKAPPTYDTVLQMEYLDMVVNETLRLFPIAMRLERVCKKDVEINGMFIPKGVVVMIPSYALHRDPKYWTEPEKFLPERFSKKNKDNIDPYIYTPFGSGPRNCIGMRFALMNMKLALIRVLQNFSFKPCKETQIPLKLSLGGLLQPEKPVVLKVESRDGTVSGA

This test has as its target T1, CYP450 3A4 (Homo sapiens, UniProt P08684).
T1 construct: Pooled (n≧15 donors) human hepatic microsomal fraction was obtained from BD-Gentest; tissue BD-Gentest (Woburn, Mass.); host or cells: pooled human liver microsomes (n≥15 donors)
The test can be described thus: CYP3A inhibition assay (terfenadine oxidase, human hepatic microsomal fraction). To be noted: pooled human hepatic microsomes 0.25 mg/mL, terfenadine 3 μM. Format: biochemical. The procedure: Pooled (n≧15 donors) human hepatic microsomal fraction was obtained from BD-Gentest (Woburn, Mass.) who also supplied hydroxy-terfenadine, 4′-hydroxydiclofenac and NADPH regenerating system. Ritonavir was prepared from commercial Norvir® oral solution (Abbott Laboratories, Abbott Park, Ill.). Other reagents were from Sigma-Aldrich (St. Louis, Mo.) and included terfenadine, fexofenadine, BRL 15572, diclofenac and mefenamic acid.
Incubations were performed in duplicate in 50 mM potassium phosphate buffer, pH 7.4 with NADPH regenerating system used as described by the manufacturer. […] The final substrate concentrations used were equal to the apparent Km values for the activities determined under the same conditions. Inhibitors were dissolved in DMSO, and the final concentration of DMSO, from both substrate and inhibitor vehicles, was 1% (v/v). Incubations were performed at 37° C. with shaking and were initiated by addition of substrate. Aliquots were then removed at 0, 7 and 15 minutes. Samples were quenched by treatment with an acetonitrile, formic acid, water (94.8%/0.2%/5%, v/v/v) mixture containing internal standard. Precipitated protein was removed by centrifugation at 3000 rpm for 10 min and aliquots of the supernatant were then subjected to LC-MS analysis.
The LC-MS system consisted of a Waters Acquity UPLC, with a binary solvent manager and a refrigerated (8° C.) sample organizer and sample manager, interfaced to a Micromass Quattro Premier tandem mass spectrometer operating in electrospray ionization mode. The column was a Waters Acquity UPLC BEH C18 2.1×50 mm, 1.7 μm […]. Mobile phases consisted of mixtures of acetonitrile, formic acid and water, the composition for mobile phase A being 1%/0.2%/98.8% (v/v/v) and that for mobile phase B being 94.8%/0.2%/5% (v/v/v). The injection volumes were 5 μL and the flow rate was 0.8 mL/min. Concentrations of metabolites were determined by reference to standard curves generated with authentic analytes under the same conditions as the incubations. […]
In the case of `CC(C)c1nc(CN(C)C(=O)N[C@H](C(=O)N[C@H](CCN(Cc2ccccc2)C(=O)OCc2cncs2)Cc2ccccc2)C(C)C)cs1` [Example 103], the IC50 lay in the range of 100 to 200 nM.

Molecule `CC(C)CN(CC[C@H](Cc1ccccc1)NC(=O)O[C@H]1CO[C@H]2OCC[C@H]21)S(=O)(=O)c1ccc(N)cc1` [Example 27] yielded an IC50 of 201 to 500 nM.

`CC(C)CN(CC[C@H](Cc1ccccc1)NC(=O)O[C@H]1CCOC1)S(=O)(=O)c1ccc(N)cc1` [Example 28]: the IC50 is 501 to 1000 nM.
